Structures can show the parent of a compound that is named as a salt.
Assays:
HEK293T cell line = test: Intracellular Ca2+ concentration by confocal laser scanning microscopy (CLSM), Fluo-3-AM; type: cell-based, human; details: HEK293T cells; for Ca2+ release performance: compared to the control rasagiline and the comparator (R)-phenylpiracetam, FIGS. 2 and 3
Protocol: To detect intracellular Ca^2+ levels, the HEK293T cell line, human renal epithelial cells, were seeded in 35 mm diameter confocal dishes 24 hours before the experiment and then were cultured to 40-60% confluency. The cells were loaded with […] fluorescent […] calcium indicator Fluo-3-acetoxymethyl (Fluo-3-AM; Invitrogen) for 30 min at 37° C. The concentration of Ca^2+ was determined using CLSM (Zeiss LSM 700 Meta; Zeiss, Oberkochen, Germany). […] The excitation and emission wavelengths for signal detection were 488 nm and 515 nm, respectively. Analysis of intracellular calcium intensity was performed using Zen software (Carl Zeiss).

GDF-8/Myostatin [1] = test: Human skeletal myoblast (HSKM) differentiation induction test, ELISA of culture supernatant: GDF-8/Myostatin; type: cell-based; details: compared to IGF-1 and (R)-phenylpiracetam treatment groups, FIG. 4
Protocol: (§1) For the human skeletal myoblast (HSKM) differentiation induction test, human skeletal myoblasts (3×10^5 cells/well) were prepared in 24-well plates. Then, these cells were treated with the test substances and incubated in a 37° C., CO2 incubator for 48 hours. After 24 and 48 hours of incubation, the cell culture supernatant was collected into an E-tube and stored in a deep freezer. For ELISA analysis, the supernatant was thawed and prepared. ELISA analysis was performed based on the test method presented in the ELISA kit.

SMAD2 = test: Human skeletal myoblast (HSKM) differentiation induction test, ELISA: SMAD2; type: cell-based; details: compared to (R)-phenylpiracetam treatment group, FIG. 5(a)
Protocol: as §1

SMAD3 = test: Human skeletal myoblast (HSKM) differentiation induction test, ELISA: SMAD3; type: cell-based; details: compared to (R)-phenylpiracetam treatment group, FIG. 5(b)
Protocol: as §1

SYP (synaptophysin) = test: mRNA expression by real-time PCR in MPTP-treated SH-SY5Y cells: SYP; type: cell-based, human; details: 2.5 mM MPTP, compared to MPTP alone, FIG. 6(a)
Protocol: (§2) After inducing an inflammatory response by treating a human neuroblastoma SH-SY5Y cell line with 2.5 mM MPTP (1-methyl-4-phenyl-1,2,3,6-tetrahydropyridine), the mRNA expression of SYP (synaptophysin), GAP-43 (Growth-associated protein-43), MAO-B (Monoamine oxidase-B), and iNOS (inducible nitric oxide synthase) was confirmed by real-time PCR.

[2] = system: GAP-43 (Growth-associated protein-43); test: mRNA expression by real-time PCR in MPTP-treated SH-SY5Y cells: GAP-43; type: cell-based, human; details: 2.5 mM MPTP, compared to MPTP alone, FIG. 6(a)
Protocol: as §2

[3] = system: MAO-B (Monoamine oxidase-B); test: mRNA expression by real-time PCR in MPTP-treated SH-SY5Y cells: MAO-B; type: cell-based, human; details: 2.5 mM MPTP, compared to MPTP alone, FIG. 6(a)
Protocol: as §2

[4] = system: iNOS (inducible nitric oxide synthase); test: mRNA expression by real-time PCR in MPTP-treated SH-SY5Y cells: iNOS; type: cell-based, human; details: 2.5 mM MPTP, compared to MPTP alone, FIG. 6(a)
Protocol: as §2

[5] = system: Parkinson's disease mouse MPTP model; test: Open field test (OFT); type: in vivo, mice; details: for total distance moved in the open field test: 10 mg/kg, compared to (R)-phenylpiracetam, MPTP alone and Selegiline treatment groups
Protocol: (§3) Six-month-old normal mice were acclimated for one week, trained for behavioral testing, and then randomly divided into groups. To construct a Parkinson's disease mouse MPTP model, mice were treated with the chiral gamma-lactam derivative of the present disclosure or a pharmaceutically acceptable salt thereof (dissolved in 0.9% saline, intraperitoneally injected (ip)) for 3 days, and then were treated with MPTP (dissolved in 0.9% saline, ip) for 5 consecutive days. […] For the control mice group, the same volume of saline solution (ip) was provided. Two days after the last injection, the efficacy was confirmed by an open field test (OFT), forced swim test (FST), rotarod test, and pilocarpine-induced seizure evaluation.
To measure general motor activity levels and behavioral anxiety of the mice, an open field test was performed. (1) First, 30 minutes before performing the open field test, the chiral gamma-lactam derivative of the present disclosure or a pharmaceutically acceptable salt thereof and a vehicle (saline, test drug) were injected intraperitoneally to the mice and their behavior was video recorded for 10 minutes. (2) Video analysis was used to check for sedation and measure the distance the mice moved.

[6] = system: Parkinson's disease mouse MPTP model; test: Forced swim test (FST); type: in vivo; details: MPTP mice, FIG. 8; for immobility time in the forced swim test: ip 30 minutes before the test, compared to the MPTP alone treatment group
Protocol: as §3
The forced swim test (FST) was performed to induce depressive behavior in mice. (1) First, a 2 L beaker was filled with water (25±1° C.) until the water was about 10 cm deep, and the mouse was allowed to swim. The mouse was returned to the breeding cage after 6 minutes. (2) The restraint stress group was confined in a restraint tube for 90 minutes until 60 minutes before the forced swim test was to be performed, and then the mouse was allowed to swim as mentioned in (1). Thereafter, the mouse was returned to the breeding cage. (3) In this case, the chiral gamma-lactam derivative of the present disclosure or a pharmaceutically acceptable salt thereof (saline, test drug) was injected into the abdominal cavity 30 minutes before the forced swim test was performed. Immobility time was measured for 4 minutes out of the 6 minutes and these measurements were compared between groups.

[7] = system: Parkinson's disease mouse MPTP model; test: Rotarod test (latency to fall), 5 weeks; type: in vivo; details: MPTP mice; for motility in the rotarod test (latency to fall): compared to the control group and the MPTP alone treatment group, FIG. 9(a)
Protocol: as §3
(§4) To evaluate the walking and motor abilities of the lower extremities of mice, a rotarod test was performed for 5 weeks. Motor coordination and balance were assessed by placing the mice on a rotating bar and measuring the time until they fell therefrom (latency to fall). MPTP was injected intraperitoneally into the mice at a concentration of 30 mg/kg for 5 consecutive days. One week after the MPTP was injected, MPTP was administered to the mice intraperitoneally (15 mg/kg) twice a week. The rotarod consists of a rotatable cylindrical rod with a diameter of 7 cm, located at a height of 60 cm and six baffles spaced at 15 cm intervals. Then, mice were placed on the rod while the rod was rotated for 180 seconds at a speed of 5 to 50 rpm (maximum speed) and the latency to fall was measured. At this time, the mice were sufficiently trained to be acclimated during the experimental period.

[8] = system: tibialis anterior (TA) and extensor digitorum longus (EDL) muscle; test: Muscle weight after the five-week rotarod test; type: in vivo; details: MPTP mice, after five weeks; for tibialis anterior (TA) muscle weight: FIG. 9(b); for extensor digitorum longus (EDL) muscle weight: FIG. 9(c)
Protocol: as §4

GDF-8/Myostatin [9] = test: Expression of the sarcopenia-related marker GDF-8/Myostatin in mouse serum; type: in vivo; details: MPTP mice, 15 mg/kg ip twice a week for 5 weeks, FIG. 11; for expression level of GDF-8/Myostatin in mouse serum: compared to IGF-1 and (R)-phenylpiracetam treatment groups
Protocol: MPTP was injected intraperitoneally into the mouse at a concentration of 30 mg/kg for 5 consecutive days. One week after the MPTP was injected, the chiral gamma-lactam derivative of the present disclosure or a pharmaceutically acceptable salt thereof (Ph-10, 20, 30) was administered intraperitoneally to the mouse at a concentration of 15 mg/kg twice a week, for 5 weeks, and the changes in the expression level of GDF-8/Myostatine, a sarcopenia-related marker in mouse serum, were determined.

[10] = system: pilocarpine-induced seizure mouse model; test: Evaluation of pilocarpine-induced seizures; type: in vivo; details: male C57BL/6J mice, 15 mg ip 25 minutes before pilocarpine 330 mg/kg, monitored for 24 hours; compared to the control group; FIG. 10
Protocol: A pilocarpine-induced seizure mouse model was created to study changes in brain activity. Pilocarpine is an agonist that binds to muscarinic cholinergic receptors in nerve cells and increases cell activity, and is used to create a mesial temporal lobe epilepsy model.
The present experiment was performed on surgically operated-on male C57BL/6J mice under a constant environmental condition (24-25° C., 50-60% humidity, 12-hour light/dark cycle). […] Pilocarpine (Sigma, Deisenhofen, Germany) was injected intraperitoneally into the mouse at a single dose of 330 mg/kg, and behavioral and electrophysiological seizure patterns were monitored for 24 hours. […]
The seizure patterns were divided into the following five types, and cases (4) and (5) were defined as convulsive seizures and analyzed for their frequency and duration: (0) no convulsive behavior; (1) facial clonus; (2) head nodding; (3) forelimb clonus; (4) rearing: animal in a standing posture aided by tail and the laterally spread hindlimbs showing increased tone; (5) rearing and falling back.

[11] = system: human neuroblastoma SH-SY5Y cell line; test: Fluorescence microscopy of Ca2+ and superoxide anions in MPTP-treated SH-SY5Y cells; type: cell-based; details: SH-SY5Y after the MPTP treatment; FIG. 6(b)

## NNC(=O)CN1C[C@@H](c2ccccc2)CC1=O [Ph-10, (R)-2-(2-oxo-4-phenylpyrrolidin-1-yl)acetohydrazide hydrochloride]
HEK293T cell line
  Ca2+ release performance: far superior
GDF-8/Myostatin [1]
  GDF-8/Myostatin level: performed equally or better
SMAD2
  SMAD2 level: effective performance
SMAD3
  SMAD3 level: effective performance
SYP (synaptophysin)
  mRNA expression of SYP: significantly increased
[2]
  mRNA expression of GAP-43: significantly increased
[3]
  mRNA expression of MAO-B: significantly reduced
[4]
  mRNA expression of iNOS: significantly reduced
[5]; MPTP mice, ip, FIG. 7(b)
  total distance moved in the open field test: increased
[6]
  immobility time in the forced swim test: much shorter
[7]
  motility in the rotarod test (latency to fall): motility was increased
[8]
  tibialis anterior (TA) muscle weight: increased by statistically significant levels
  extensor digitorum longus (EDL) muscle weight: increased by statistically significant levels
GDF-8/Myostatin [9]
  expression level of GDF-8/Myostatin in mouse serum: relatively lower

## Cl.NC(=O)CN1C[C@H](c2ccccc2)CC1=O [Ph-20, (S)-2-(2-oxo-4-phenylpyrrolidin-1-yl)acetamide hydrochloride]
HEK293T cell line
  Ca2+ release performance: far superior
GDF-8/Myostatin [1]
  GDF-8/Myostatin level: performed equally or better
SMAD2
  SMAD2 level: effective performance
SMAD3
  SMAD3 level: effective performance
SYP (synaptophysin)
  mRNA expression of SYP: significantly increased
[5]; MPTP mice, ip, FIG. 7(b)
  total distance moved in the open field test: increased
[6]
  immobility time in the forced swim test: much shorter
[7]
  motility in the rotarod test (latency to fall): motility was increased
[8]
  tibialis anterior (TA) muscle weight: increased by statistically significant levels
  extensor digitorum longus (EDL) muscle weight: increased by statistically significant levels
[10]
  total number of convulsive seizures: effectively reduced
GDF-8/Myostatin [9]
  expression level of GDF-8/Myostatin in mouse serum: relatively lower

## Cl.NC(=O)CN1C[C@@H](c2ccccc2)CC1=O [Ph-30, (R)-2-(2-oxo-4-phenylpyrrolidin-1-yl)acetamide hydrochloride]
HEK293T cell line
  calcium release performance difference, (R)-type Ph-30 compared to (S)-type Ph-20: ≥ 2 times
  Ca2+ release performance: far superior
HEK293T cell line; CLSM, FIG. 1 (Ph-30)
  time at which the intensity of intracellular calcium was highest: 18 s
GDF-8/Myostatin [1]
  GDF-8/Myostatin level: reduced GDF-8/Myostatin level the most
SMAD2
  SMAD2 level: lowered the SMAD2 and SMAD3 levels the most
SMAD3
  SMAD3 level: lowered the SMAD2 and SMAD3 levels the most
SYP (synaptophysin)
  mRNA expression of SYP: significantly increased
[3]
  mRNA expression of MAO-B: significantly reduced
[4]
  mRNA expression of iNOS: significantly reduced
[11]
  Ca2+ (fluorescence microscopy): significantly increased
  superoxide anions (fluorescence microscopy): significantly reduced
[5]; MPTP mice, ip, FIG. 7(b)
  total distance moved in the open field test: increased
  total distance moved relative to the MPTP alone treatment group: approximately three times higher
[5]; mice, ip, 5, 10 and 15 mg/kg, compared to the control group, FIG. 7(a)
  distance moved in the open field test: increased compared to the control group at all concentrations
[6]
  immobility time in the forced swim test: much shorter
  immobility time in the forced swim test compared to the untreated control group (saline): lower immobility time than the untreated control group
[7]; FIG. 9
  efficacy in the rotarod test compared to the Ph-20 compound: approximately twice the efficacy
[7]
  motility in the rotarod test (latency to fall): motility was increased
[8]
  tibialis anterior (TA) muscle weight: increased by statistically significant levels
  extensor digitorum longus (EDL) muscle weight: increased by statistically significant levels
[10]
  total number of convulsive seizures: significantly lower
GDF-8/Myostatin [9]
  expression level of GDF-8/Myostatin in mouse serum, comparison among the Ph compounds (chirality): lowest expression levels
  expression level of GDF-8/Myostatin in mouse serum: relatively lower

## NC(=O)CN1C[C@@H](c2ccccc2)CC1=O [phenylpiracetam, (R)-phenylpiracetam, reference compound]
[6]
  immobility time in the forced swim test: reduced immobility time

Reference: patent US20260076939A1, “CHIRAL GAMMA LACTAM DERIVATIVE OR PHARMACEUTICALLY ACCEPTABLE SALT THEREOF, AND PREPARATION METHOD THEREFOR” (Korea University Research and Business Foundation, priority 2022, published 2026)
